The experiment addresses T1, YSK4 (h) (Homo sapiens, UniProt Q56UN5).
T1 construct: purchased Millipore
T1 sequence (Q56UN5 1-1328): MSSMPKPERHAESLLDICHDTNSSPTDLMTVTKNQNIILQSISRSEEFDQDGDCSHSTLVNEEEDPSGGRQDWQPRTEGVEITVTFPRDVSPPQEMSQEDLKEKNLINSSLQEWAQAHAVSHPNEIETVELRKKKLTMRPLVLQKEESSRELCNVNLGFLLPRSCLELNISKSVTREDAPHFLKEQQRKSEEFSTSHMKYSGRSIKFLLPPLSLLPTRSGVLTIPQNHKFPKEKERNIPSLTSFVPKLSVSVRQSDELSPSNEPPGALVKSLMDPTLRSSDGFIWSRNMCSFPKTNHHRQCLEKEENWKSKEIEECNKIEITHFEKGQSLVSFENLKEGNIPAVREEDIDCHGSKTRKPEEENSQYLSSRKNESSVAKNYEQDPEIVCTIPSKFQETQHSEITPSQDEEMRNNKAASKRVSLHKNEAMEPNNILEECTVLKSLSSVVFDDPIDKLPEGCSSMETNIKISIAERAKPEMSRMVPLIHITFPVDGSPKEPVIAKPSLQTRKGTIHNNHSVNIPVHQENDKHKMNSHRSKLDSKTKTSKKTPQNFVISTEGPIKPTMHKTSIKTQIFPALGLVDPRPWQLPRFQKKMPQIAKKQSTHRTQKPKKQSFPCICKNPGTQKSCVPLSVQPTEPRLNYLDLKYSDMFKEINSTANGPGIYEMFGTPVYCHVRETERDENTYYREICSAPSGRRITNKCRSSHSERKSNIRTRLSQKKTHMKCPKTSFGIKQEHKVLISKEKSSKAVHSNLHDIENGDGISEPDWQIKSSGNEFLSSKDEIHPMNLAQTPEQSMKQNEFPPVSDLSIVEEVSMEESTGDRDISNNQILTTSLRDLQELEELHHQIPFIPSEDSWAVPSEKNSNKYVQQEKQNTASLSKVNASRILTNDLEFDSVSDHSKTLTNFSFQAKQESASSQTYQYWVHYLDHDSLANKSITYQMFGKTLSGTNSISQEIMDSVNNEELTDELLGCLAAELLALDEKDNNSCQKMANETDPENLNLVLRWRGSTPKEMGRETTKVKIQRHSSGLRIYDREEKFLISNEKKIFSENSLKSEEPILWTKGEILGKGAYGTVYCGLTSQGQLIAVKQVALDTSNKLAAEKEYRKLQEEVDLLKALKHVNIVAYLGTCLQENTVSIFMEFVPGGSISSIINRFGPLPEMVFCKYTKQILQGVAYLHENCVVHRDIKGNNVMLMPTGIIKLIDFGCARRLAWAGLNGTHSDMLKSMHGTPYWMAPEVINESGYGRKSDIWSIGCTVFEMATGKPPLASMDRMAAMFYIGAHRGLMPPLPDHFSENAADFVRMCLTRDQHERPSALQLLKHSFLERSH
The experiment in a line: Commercial kinase activity assay (Millipore, 33P-ATP filter). It counts as biochemical. Conditions: 10 μM test compound. How it is done:
LOK (h) was incubated with 8 mM MOPS pH 7.0, 0.2 mM EDTA, 250 μM […], 10 mM MgAcetate and [γ-^33P-ATP] (specific activity approx. 500 cpm/pmol, concentration as required). The reaction was initiated by the addition of the MgATP mix. After incubation for 40 minutes at room temperature, the reaction was stopped by the addition of 3% phosphoric acid solution. 10 μL of the reaction was then spotted onto a P30 filtermat and washed three times for 5 minutes in 75 mM phosphoric acid and once in methanol prior to drying and scintillation counting. PI3K p110β/p85α (h) PI3K (p110β/p85α) (h) was incubated in assay buffer containing 10 μM phosphatidylinositol-4,5-bisphosphate and MgATP (concentration as required). The reaction was initiated by the addition of the MgATP mix. After incubation for 30 minutes at room temperature, the reaction was stopped by the addition of stop solution containing EDTA and biotinylated phosphatidylinositol-3,4,5-trisphosphate. Finally, detection buffer was added, which contains europium-labelled anti-GST monoclonal antibody, GST-tagged GRP1 PH domain and streptavidinallophycocyanin. The plate was then read in time-resolved fluorescence mode and the homogenous time-resolved fluorescence (HTRF®) signal determined according to the formula HTRF=10000×(Em665nm/Em620 nm). YSK4 (h) YSK4 (h) was incubated with 8 mM MOPS pH 7.0, 0.2 mM EDTA, 250 […], 10 mM MgAcetate and [γ-^33P-ATP] (specific activity approx. 500 cpm/pmol, concentration as required). The reaction was initiated by the addition of the MgATP mix. After incubation for 40 minutes at room temperature, the reaction was stopped by the addition of 3% phosphoric acid solution. 10 μL of the reaction was then spotted onto a P30 filtermat and washed three times for 5 minutes in 75 mM phosphoric acid and once in methanol prior to drying and scintillation counting. PI4KA (PI4K alpha) The 2× PI4KA (PI4K alpha)/PI Lipid Kinase Substrate mixture was prepared in 20 mM Tris, pH 7.5, 0.4% Triton X-100, 5 mM MgCl2, 0.5 mM EGTA. The final 10 μL Kinase Reaction consisted of 75-300 ng PI4KA (PI4K alpha) and 100 μM PI Lipid Kinase Substrate in 7.5 mM HEPES, 10 mM Tris, pH 7.5, 0.2% Triton X-100, 2.5 mM MgCl2, 0.25 mM EGTA. After the 1 hour Kinase Reaction incubation, 5 μL of Detection Mix consisting of a europium labeled anti-ADP antibody, an Alexa Fluor® 647 labeled ADP tracer, and EDTA (to stop the kinase reaction) was added to the assay well. ADP formed by the kinase reaction (in the absence of an inhibitor) displaced the Alexa Fluor® 647 labeled ADP tracer from the antibody, resulting in a decrease in the TR-FRET signal. […] PI4KB (PI4K beta) The 2× PI4KB (PI4K beta)/PI Lipid Kinase Substrate mixture was prepared in 50 mM HEPES pH 7.5, 0.1% CHAPS, 1 mM EGTA, 4 mM MgCl2. […]

The source of these data is patent US9301961B2, “Autoimmune and inflammatory disorder therapy” (Katholieke Universiteit Leuven, K.U. Leuven R&D, priority 2011, dated 2016).

Turning to `Nc1nc(N2CCN(C(=O)COc3ccc(Cl)cc3)CC2)c2nc(-c3cccnc3)sc2n1` [formula (1), 5-amino-7-[4-(4-chlorophenoxyacetyl)piperazin-1-yl]-2-(pyridin-3-yl)thiazolo[5,4-d]pyrimidine], the Kinase activity is 108 percentage of control.
